According to article PMC11714206, “Massively Parallel Screening of Toll/Interleukin‐1 Receptor (TIR)‐Derived Peptides Reveals Multiple Toll‐Like Receptors (TLRs)‐Targeting Immunomodulatory Peptides” (Advanced Science, 2024):
“And” between values parts separate entries of the source, which are not always exact repeats. Equal entries are not always repeated.

Molecular target: T1, MyD88^TIR (Homo sapiens, UniProt Q99836)
T1 construct: MyD88 (residues 148–296); 6xHis; made in house; host or cells: E. coli BL21 (DE3)
Test: T‐Surf phage library (P8 and P3) selection against MyD88^TIR, four rounds, NGS read counts
Type: binding
Conditions: for Population: 4th round of selection against MyD88 TIR, share of NGS reads; for P8_MyD88 Rank (after) / P8_MyD88 Rank (before): P8 library; for P3_MyD88 Rank (after) / P3_MyD88 Rank (before): P3 library
Description: T‐Surf libraries were screened against the immobilized TIR domains of two major human TLR adaptor proteins, MAL^TIR and MyD88^TIR, allowing cross‐species selection of TIR‐binding motifs with 190 946 TIR‐derived peptides in a single binding assay (Scheme 1). Enriched phage pools from the fourth round of selection were analyzed using NGS after barcoding the peptide‐coding regions of the phage pools.
Phage display screening was performed by coating two wells of a 96‐well plate (Maxisorp, Thermo Fisher Scientific) with 100 µL of 5 µg mL^−1 TIR domains overnight; then, the coated wells were blocked with 200 µL of blocking buffer (0.2% BSA in PBS) and set aside for 1 h at 4 °C with gentle shaking. Next, 100 µL of the phage library was added to the wells and incubated for 1 h at room temperature (RT; 20 – 22 °C) with gentle shaking. The plate was washed four times with PBS containing 0.5% Tween‐20; the bound phages were eluted by adding 100 µL of 100 mM HCl to each well. The elute was neutralized with 10 µL of 1.0 M Tris‐HCl (pH 11.0). E. coli TG1 cells were grown to the log phase (A600 = ≈0.6), and 1 mL of the culture was incubated with 100 µL of the eluted phages for 30 min at 37 °C, with shaking at 200 rpm. Next, 1 µL of M13KO7 helper phages was added, followed by incubation for 45 min at 37 °C, with shaking. Subsequently, the cells were transferred to 25 mL of 2× yeast extract tryptone/carbenicillin/kanamycin medium and incubated overnight at 37 °C with shaking at 200 rpm. The amplified phages were precipitated with 20% PEG‐8000/2.5 M NaCl to be used for the next round of selection.
The naïve T‐Surf libraries in P8 and P3 and the enriched phage pools after four rounds were barcoded for NGS as previously described.^[ [59] ^] Briefly, 5 µL of the phage pool was used as a template for 20 cycles of a 50 µL PCR reaction using […] each of forward and reverse barcoded primers and PrimeSTAR Max DNA Polymerase. The PCR products were purified using Expin Gel SV (GeneAll). The NGS samples were quantified using qPCR, following the qPCR Quantification Protocol Guide (KAPA Library Quantification kits for Illumina Sequencing Platform), and qualified using the TapeStation High Sensitivity D1000 ScreenTape (Agilent Technologies). The indexed libraries were further sequenced by Macrogen (Seoul, Republic of Korea) using the NovaSeq platform (Illumina) with 100 bp paired‐end reads. The reads were demultiplexed by barcodes and filtered for an average Phred quality score of at least 30, followed by trimming the flanking consensus sequences using Cutadapt (version 2.3). Peptide sequence populations were analyzed according to the read counts.

[1] = P8_MyD88: rank by NGS read count after grouping
[2] = P8_MyD88: rank by NGS read count before grouping
[3] = P8_MyD88 pool: P8 T-Surf phage library
[4] = P8_MyD88: rank by count after grouping
[5] = P8_MyD88: rank by count before grouping
[6] = selection against MyD88, rank by count after grouping
[7] = selection against MyD88, rank by count before grouping
[8] = selection against MyD88, rank after grouping
[9] = selection against MyD88, rank before grouping
[10] = 4R selection against MyD88, rank after grouping
[11] = 4R selection against MyD88, rank before grouping
[12] = P3_MyD88 pool: P3 T-Surf phage library
[13] = P3_MyD88: rank by count after grouping
[14] = P3_MyD88: rank by count before grouping
[15] = selection against MyD88 TIR, rank by count after grouping
[16] = selection against MyD88 TIR, rank by count before grouping

T1 sequence (Q99836 148-296): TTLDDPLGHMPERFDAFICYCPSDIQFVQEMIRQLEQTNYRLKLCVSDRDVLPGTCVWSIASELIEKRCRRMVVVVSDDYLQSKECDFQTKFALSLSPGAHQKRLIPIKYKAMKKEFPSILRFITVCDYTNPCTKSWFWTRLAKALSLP

DPQDQDWVYERLVSLF
Rank (after) [1]: 936 | Rank (before) [2]: 2966

ELDFSHFWLFEAGGDA
Population [3]: 0.02%

ELDFSHFWLFDAGGEA
Population [3]: 0.0154%

DFSHFWLFEARGDA
Rank (after) [4]: 387 | Rank (before) [5]: 2381

CALCELLQILHARGLF
P8_MyD88 Rank (after) [6]: 725 | P8_MyD88 Rank (before) [7]: 1345

DPQDPDWCYERLVSLI
P8_MyD88 Rank (after) [8]: 522 | P8_MyD88 Rank (before) [9]: 2962

YLQDLDWFYERLVSLF
Rank (after) [4]: 478 | Rank (before) [5]: 2080

RSFREGLWRLLELRKK
P3_MyD88 Rank (after) [10]: 629 | P3_MyD88 Rank (before) [11]: 2693

NHHLDLPRGKAIKPEILG
Population [12]: 0.00524%

RFGGDTFLEYLVLISM
P8_MyD88 Rank (after) [6]: 765 | P8_MyD88 Rank (before) [7]: 3753

YITWFEDFQQILLFWI
Rank (after) [1]: 924 | Rank (before) [2]: 2117

SEIYATSPWALDVLVL
P3_MyD88 Rank (after) [8]: 508 | P3_MyD88 Rank (before) [9]: 2953

WRWMNCCRFCMRVNC
P8_MyD88 Rank (after) [6]: 729 | P8_MyD88 Rank (before) [7]: 1649

AVDIETEKIQTPLKNA
Rank (after) [13]: 157 | Rank (before) [14]: 1891

FIRYLVWGLRDERLNL
P8_MyD88 Rank (after) [15]: 208 | P8_MyD88 Rank (before) [16]: 297

DPQDLDWLYERLVSLF
Population [3]: 0.00617%

SDLRVVDDGSVSPLAM
P3_MyD88 Rank (after) [6]: 711 | P3_MyD88 Rank (before) [7]: 3005

MFGGATLHDVLELISM
P8_MyD88 Rank (after) [8]: 509 | P8_MyD88 Rank (before) [9]: 3654

SSFCEGLWRLLELSKK
Population [12]: 0.00437%

SSFREGLLRLLELSKK
Population [12]: 0.0032%

NQWRHALTAEANLSGW
Rank (after) [13]: 408 | Rank (before) [14]: 3472

NQWRNALIAAVNLSGC
P3_MyD88 Rank (after) [6]: 700 | P3_MyD88 Rank (before) [7]: 3485

DPQELEWFYERLVSLF
Rank (after) [4]: 163 | Rank (before) [5]: 745

KNLFNELVSKNIRTL
Rank (after) [13]: 103 | Rank (before) [14]: 542

IDDHHLTFLVSLLLSL
Rank (after) [1]: 975 | Rank (before) [2]: 3651

YYDSRWALDELLKILDAKETM
Rank (after) [4]: 470 | Rank (before) [5]: 1677

DPQELDWFYERLVSLF
Population [3]: 0.02% and 0.0158%

LEYRWIDWEYFVGLED
Rank (after) [1]: 886 | Rank (before) [2]: 3357

PQELEWFHKRLVRLIL
Rank (after) [4]: 455 | Rank (before) [5]: 3496

DWVWEYLLPNVERPEG
Rank (after) [1]: 880 | Rank (before) [2]: 2458

PQDLEWFYERGEPDS
P8_MyD88 Rank (after) [6]: 751 | P8_MyD88 Rank (before) [7]: 3445

LSRVPGVHDFRGLVDI
Rank (after) [13]: 441 | Rank (before) [14]: 2377

SSFREDLWRLLELSKK
Population [12]: 0.00437%

DHHLDLPRGKSFKPEILG
Rank (after) [13]: 451 | Rank (before) [14]: 1996

DPQDLEWFYERLVSLI
Population [3]: 0.01%

LGYHWIDWEYFV
Population [3]: 0.0274%

DSLFWDRLLYSLQFTE
Rank (after) [1]: 933 | Rank (before) [2]: 3097

WDFASDMEQVWDRLYY
Rank (after) [4]: 444 | Rank (before) [5]: 1582

DHHLDLPRGKAIKPEIL
Rank (after) [13]: 108 | Rank (before) [14]: 953

WALDERLIIQYANETM
P8_MyD88 Rank (after) [6]: 679 | P8_MyD88 Rank (before) [7]: 1510

SENYATSPWALEKAGKL
Rank (after) [13]: 423 | Rank (before) [14]: 2984

YNFISHLYDALRLNKIAPF
P3_MyD88 Rank (after) [10]: 634 | P3_MyD88 Rank (before) [11]: 1728

MFGGDTFHDFLDLLA
P8_MyD88 Rank (after) [6]: 690 | P8_MyD88 Rank (before) [7]: 3664

YASSSWELDELLRIPY
Rank (after) [1]: 966 | Rank (before) [2]: 1904

DPQGLVCYYERLVSLL
P8_MyD88 Rank (after) [10]: 595 | P8_MyD88 Rank (before) [11]: 2662

YTALTNSGIHTLRDND
Rank (after) [13]: 174 | Rank (before) [14]: 1691

AGDKGTDKIQTPLKNA
P3_MyD88 Rank (after) [8]: 484 | P3_MyD88 Rank (before) [9]: 1942

YLKWGYPRFWDRLRCA
P3_MyD88 Rank (after) [15]: 216 | P3_MyD88 Rank (before) [16]: 1602

STTYLQWGDNWFWDKL
P8_MyD88 Rank (after) [6]: 740 | P8_MyD88 Rank (before) [7]: 3819

LEANDSLFWDRLLYSLHVTE
Rank (after) [4]: 179 | Rank (before) [5]: 214

RSFRKGLWRLLELSNK
Rank (after) [13]: 431 | Rank (before) [14]: 2695

YELDFSHFCCLMARR
Rank (after) [1]: 929 | Rank (before) [2]: 1947

DSFFWGRLLYSLHVTE
Rank (after) [1]: 970 | Rank (before) [2]: 3074

LGYHWLDWEYFVSIED
Rank (after) [4]: 451 | Rank (before) [5]: 3240

YLKWGYPWFGIVCVL
Rank (after) [13]: 166 | Rank (before) [14]: 855

GSFRESLWRLLELSKK
Rank (after) [13]: 465 | Rank (before) [14]: 1859

PSEVRVVDDGSVSPLEM
P3_MyD88 Rank (after) [15]: 211 | P3_MyD88 Rank (before) [16]: 1126

DPPELDWFYERLFSLF
Rank (after) [1]: 971 | Rank (before) [2]: 2627

RFWESQRYMKPNVSHT
P3_MyD88 Rank (after) [6]: 708 | P3_MyD88 Rank (before) [7]: 2552

YASSSWALDELLQILW
P8_MyD88 Rank (after) [6]: 720 | P8_MyD88 Rank (before) [7]: 1891

IFISHLYNSLTNAGIY
Rank (after) [4]: 178 | Rank (before) [5]: 227

SSFREGQWCLMELCKK
P3_MyD88 Rank (after) [15]: 280 | P3_MyD88 Rank (before) [16]: 3218

DQHRDLPRGKAIKPEILG
Rank (after) [13]: 168 | Rank (before) [14]: 2067

SSFREGLWHLLVLSKK
Rank (after) [13]: 160 | Rank (before) [14]: 3197

SLRQNLVSNLLEEFKR
Rank (after) [13]: 480 | Rank (before) [14]: 3075

SSFRDGLWRLLELSKT
Rank (after) [13]: 106 | Rank (before) [14]: 1198

LVAHQISKTIKIFATI
Rank (after) [13]: 389 | Rank (before) [14]: 2314

PSEVRKQTGSLAKAAL
P3_MyD88 Rank (after) [10]: 593 | P3_MyD88 Rank (before) [11]: 2756

YTALTNSGFHTFRVNV
P3_MyD88 Rank (after) [10]: 659 | P3_MyD88 Rank (before) [11]: 1668

YTALTAAANLSGW
Population [12]: 0.00378%

WALDLEWFYERLFSQM
P8_MyD88 Rank (after) [10]: 587 | P8_MyD88 Rank (before) [11]: 1517

YYLDPSHLRKQSGESERL
P3_MyD88 Rank (after) [6]: 728 | P3_MyD88 Rank (before) [7]: 1459

YASSSWALNELPRILY
Rank (after) [4]: 389 | Rank (before) [5]: 1902

DWVWDYLLPIWKAQR
P8_MyD88 Rank (after) [6]: 704 | P8_MyD88 Rank (before) [7]: 2449

NELVHVWCCKANSQAG
Rank (after) [13]: 420 | Rank (before) [14]: 3407

WDFAGNWEQFWDRLSY
P8_MyD88 Rank (after) [6]: 772 | P8_MyD88 Rank (before) [7]: 1576

AVDNETDKIQTPLKNE
P3_MyD88 Rank (after) [15]: 231 | P3_MyD88 Rank (before) [16]: 1895

ELDFSHFWLFDGQAT
P8_MyD88 Rank (after) [15]: 218 | P8_MyD88 Rank (before) [16]: 358

WVFQTLYSTLEDEYAF
P8_MyD88 Rank (after) [15]: 228 | P8_MyD88 Rank (before) [16]: 372

RISAFHQQLVMALNTQ
P3_MyD88 Rank (after) [10]: 614 | P3_MyD88 Rank (before) [11]: 2599

DHHLDLSRGKSIKPDILG
Rank (after) [13]: 435 | Rank (before) [14]: 2053

YELDFSHFWLFVGQAP
Rank (after) [1]: 1008 | Rank (before) [2]: 1929

WALAELLKILYAKEPM
P8_MyD88 Rank (after) [6]: 763 | P8_MyD88 Rank (before) [7]: 1399

DHHLDLPRGKAIKQEILG
Population [12]: 0.00495%

VRHTFAGYLYDALNRL
Rank (after) [4]: 141 | Rank (before) [5]: 155 | Population [3]: 0.01%

YYDSRWALDELLKIL
P8_MyD88 Rank (after) [8]: 484 | P8_MyD88 Rank (before) [9]: 1678
